These results are taken from US7786172B2 (priority 2002, dated 2010).

A short description of data set [1]: Example 1: percutaneous [3H]-4-hydroxy tamoxifen delivery in breast cancer patients (tissue, blood, urine radioactivity).
Experimental: The patients received [^3H]-labeled drug applied directly on the affected breasts at specified intervals ranging from 12 hours to 7 days before surgery to excise diseased tissue. Breast tissue from three regions: the tumor, tissue immediately surrounding the tumor, and normal tissue, was excised and immediately frozen in liquid nitrogen. Additionally, plasma and urine samples were obtained at scheduled intervals and frozen until analysis.
Data set [2] concerns mastalgia. Particulars: cited from earlier work; for side effects: cyclical mastalgia treatment, nausea, vomiting, dizziness, headache, acne, sweating, amenorrhea, weight gain.
For the next data set, the system named is rat liver. Particulars: in vivo; cited from earlier work.
The nature of another data set: Skin penetration. To be noted: without assistance from penetration enhancers.
The nature of data set [3]: Example 3: pharmacokinetics of 4-hydroxy tamoxifen gel in healthy premenopausal women. In kind it is in vivo, human.
Experimental: Each participant applied the gel daily for the duration of two menstrual cycles.
At the end of a menstrual cycle, each patient received a single dose, after which serial blood samples were collected at 0, 0.5, 1, 1.5, 2, 3, 4, 6, 12, 18, 24, 36, 48, and 72 hours.
On the first day of the following menstruation, treatment, which consisted of daily application of the gel over two menstrual cycles, began. Blood samples were collected 24 hours following the morning application of gel on days 7, 20 and 25 of the first and second cycles. On the last day of administration, day 25 of the second menstrual cycle, serial blood samples were collected prior to application and at 0.5, 1, 1.5, 2, 3, 4, 6, 12, 18, 24, 36, 48, and 72 hours after application of the gel.
Data set [4] relates to mastalgia. In words: Example 4: efficacy of percutaneous 4-hydroxy tamoxifen in mastalgia. In kind it is in vivo, human. The text has this:
All patients had normal mammograms within the previous 6 months, and utilized contraception throughout the study and 3 months preceding it.
The primary criteria considered were the number of painful days per month and the mean pain severity during the last 10 days of the menstrual cycle. Assessments of pain were made by patient self-evaluation. Secondary criteria included clinical assessment by the physician of breast tenderness, nodularity, breast size, local warmth, and breast circumference. Any side effects were recorded.
Daily self-evaluation of pain continued as in the earlier stage.

SMILES strings stand for the structures. Like-named read-outs stand apart in the source and are kept apart here.

Regarding `CC/C(=C(\c1ccccc1)c1ccc(OCCN(C)C)cc1)c1ccccc1` [[^3H]-tamoxifen, reference compound], the “plateau of radioactivity in blood” value in data set [1] (percutaneous application) is given as 2 days.

For `CC(C)C[C@H]1C(=O)N2CCC[C@H]2[C@]2(O)O[C@](NC(=O)[C@@H]3C=C4c5cccc6[nH]c(Br)c(c56)C[C@H]4N(C)C3)(C(C)C)C(=O)N12` [bromocriptine], the side effects entry with mastalgia [2] is “significant unwanted side effects”.

`CC/C(=C(\c1ccc(O)cc1)c1ccc(OCCN(C)C)cc1)c1ccccc1` [4-hydroxy tamoxifen, 1-[4-(2-N-dimethylaminoethoxy)phenyl]-1-(4-hydroxyphenyl)-2-phenylbut-1-(Z)-ene]: the rat liver carcinogenicity entry with rat liver is “not”. Further, the skin penetration entry in “Skin penetration” is reported as “poorly penetrates the skin”. Moreover, the “plasma concentrations after the last gel application” value in data set [3] (72 hours after the last gel application) is recorded as “remained detectable”. The “Plasma concentration of 4-hydroxy tamoxifen, Mean ± SD (Range)” value is “<LOQ” in data set [3] (+8 days after last application, 0.5 mg/day, gel 20 mg/100 g); “(0-14.8) pg/mL” in data set [3] (+8 days after last application, 1 mg/day, gel 57 mg/100 g); no more than 9.09 pg/mL in data set [3] (+12 days after last application, 0.5 mg/day, gel 20 mg/100 g); “(0-30.4) pg/mL” in data set [3] (+12 days after last application, 2 mg/day, gel 57 mg/100 g); 0 pg/mL in data set [3] (+20 days after last application, 0.5 mg/day, gel 20 mg/100 g); “<LOQ” in data set [3] (+20 days after last application, 1 mg/day, gel 20 mg/100 g). In addition, the “Plasma concentration of 4-hydroxy tamoxifen, Mean ± SD (Range)” value was “(0-17.2) pg/mL” in data set [3] (First cycle, Day 1, 0 hr, 0.5 mg/day, gel 20 mg/100 g); “(0-13.9) pg/mL” in data set [3] (First cycle, Day 1, 0 hr, 1 mg/day, gel 20 mg/100 g); “(0-9.5) pg/mL” in data set [3] (First cycle, Day 1, 0 hr, 1 mg/day, gel 57 mg/100 g); “(0-0) pg/mL” in data set [3] (First cycle, Day 1, 0 hr, 2 mg/day, gel 57 mg/100 g). Further, in data set [3] (single 0.5 mg dose, gel), the “plasma concentrations after a single dose” value was “did not produce detectable plasma concentrations”. Besides, in data set [1] (percutaneous administration), the “peak urinary elimination compared to percutaneous tamoxifen” value is “later time”. Further, the “metabolism in cytosolic and nuclear fractions of breast tissue” value in data set [1] (percutaneous application) was “remained unmetabolized except for limited isomerization from the trans to the cis form”. In addition, the “reduction of mean number of days with pain” value in the data set on mastalgia [4] (1.5 mg/day) is on record as “more than 50%”. The “reduction of mean pain intensity” value with mastalgia [4] (1.5 mg/day) is on record as “more than 50%”. The “Mean Number of Days of Pain Level Greater than 20” value in the data set with mastalgia [4] (1 dose/breast, 0.5 mg/day, placebo 8.1 +/− 4.2) is 9.3 ± 5.2 days; in the data set on mastalgia [4] (2 doses/breast, 1.0 mg/day), 8.2 ± 5.5 days; in the data set on mastalgia [4] (3 doses/breast, 1.5 mg/day), 3.6 ± 5.2 days; in the data set with mastalgia [4] (4 doses/breast, 2.0 mg/day), 4.7 ± 4.4 days. For the same compound, the “Mean Pain Intensity During the Last 10 Days of the Menstrual Cycle” value in the data set with mastalgia [4] (1 dose/breast, 0.5 mg/day, placebo 34 +/− 25) is on record as 38 +/− 25 /100; in the data set with mastalgia [4] (2 doses/breast, 1.0 mg/day) it was 29 +/− 23 /100; in the data set on mastalgia [4] (3 doses/breast, 1.5 mg/day), 15 +/− 19 /100; in the data set on mastalgia [4] (4 doses/breast, 2.0 mg/day), 17 +/− 19 /100.

As for `CCC(=C(c1ccc(O)cc1)c1ccc(O)cc1)c1ccccc1` [Bisphenol], the “% Metabolites in Breast Tissue” value is on record as 1% in data set [1] (12 hr after percutaneous trans-[3H]-4-hydroxy tamoxifen to the affected breast); 2% in data set [1] (24 hr after percutaneous trans-[3H]-4-hydroxy tamoxifen to the affected breast); 3% in data set [1] (36 hr after percutaneous trans-[3H]-4-hydroxy tamoxifen to the affected breast); 8% in data set [1] (Day 4 after percutaneous trans-[3H]-4-hydroxy tamoxifen to the affected breast); 8% in data set [1] (Day 7 after percutaneous trans-[3H]-4-hydroxy tamoxifen to the affected breast). Moreover, the “share of radioactivity in blood” value in data set [1] (24 hours after percutaneous administration of [3H]-4-hydroxy tamoxifen) is 11%.

On to `CC/C(=C(\c1ccccc1)c1ccc(OCCN(C)C)cc1)c1ccccc1` [tamoxifen], for which the “retention in the breast” value in data set [1] (percutaneous application of [3H]-labeled drug to the affected breast) was “shorter and far weaker”. For the same compound, the “side effects reported by mastalgia patients” value in the data set with mastalgia [2] (oral tamoxifen) is “hot flashes, vaginal discharge, depression, amenorrhea, and nausea”. In addition, the “patients with reduced pain” value in the data set on mastalgia [2] (orally administered, patients with moderate to severe mastalgia) is recorded as 71-90%. The “effective at reducing pain” value in the data set with mastalgia [2] (patients with cyclical mastalgia) is on record as 94%; in the data set on mastalgia [2] (patients with non-cyclical mastalgia), 56%.

For the compound `C#C[C@]1(O)CC[C@H]2[C@@H]3CCC4=Cc5oncc5C[C@]4(C)[C@H]3CC[C@@]21C` [danazol], the side effects entry in the data set on mastalgia [2] is given as “significant unwanted side effects”. In addition, the “efficacy at relieving cyclical mastalgia” value in the data set with mastalgia [2] (human, in vivo) was “some efficacy”.
